Test results: patent US20230303540A1 (Merck Sharp & Dohme LLC, priority 2020, published 2023)

Molecular target: GST-tagged truncated human mutant G2019S LRRK2 (Homo sapiens, UniProt Q5S007, G2019S)
Assay: LRRK2 G2019S Km ATP LanthaScreen assay
Type: biochemical
Settings: 134 μM ATP (Km ATP), LRRKtide substrate, mean IC50 values; read-out: LRRK2 pIC50 (converted)
In short: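 Compound preincubated 15 min at room temperature with enzyme in pH 8.5 Tris buffer (10 mM MgCl2). Then a 90 min reaction at ambient temperature with 134 μM (Km) ATP and fluorescein-LRRKtide. EDTA stop, Tb anti-phospho antibody TR-FRET; […]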

Cc1c(Nc2ncc3cc(Cl)c(N4CCN(C5COCC5O)CC4)cc3n2)cnn1CC(F)F (single isomer, unassigned) [Ex-6.26, (3S,4S) or (3R,4R) 4-[4-(6-chloro-2-{[1-(2,2-difluoroethyl)-5-methyl-1H-pyrazol-4-yl]amino}quinazolin-7-yl)piperazin-1-yl]oxolan-3-ol]
IC50: 11.5 nM

O[C@@H]1COC[C@@H]1N1CCN(c2cc3nc(Nc4cnn(C56CC(C5)C6)c4Cl)ncc3cc2Cl)CC1 (single isomer, unassigned) [Ex-13.2, (3S,4S) or (3R,4R)-4-(4-(2-((1-(bicyclo[1.1.1]pentan-1-yl)-5-chloro-1H-pyrazol-4-yl)amino)-6-chloroquinazolin-7-yl)piperazin-1-yl)tetrahydrofuran-3-ol]
IC50: 3.81 nM
